{"source": "patent US10947273B2", "about": "“Peptides of use in the preventive and curative treatment of alopecia” (Institut Europeen de Biologie Cellulaire, priority 2015, dated 2021)", "key": {"SCF [1]": {"test_system": "SCF", "experiment": "SCF secretion by HHFK (ELISA/BioPlex)", "format": "cell-based, human", "settings": "10^−7 M, 48h", "procedure": "(§1) NHDF, HFDPC, HHFK and NHEM cells were treated with the peptides studied for 48h. At the end of the treatment, cell supernatants were collected and stored at −80° C. until analysis. The factors of interest secreted into the supernatant were assayed by ELISA® (R&D) or BioPlex® (BioRad®).\n(§2) The results are expressed as percent increase in the concentration of the factor present in the supernatant relative to the untreated control. The intensity of the effect varies as a function of the concentration of the peptide studied and of the cell type treated."}, "VEGF [2]": {"test_system": "VEGF", "experiment": "VEGF secretion by NHEM (ELISA/BioPlex)", "format": "cell-based, human", "settings": "10^−7 M, 48h", "procedure": "as §1, §2"}, "VEGF [3]": {"test_system": "VEGF", "experiment": "qPCR (TLDA) VEGF gene expression in HFDPC", "format": "cell-based, human", "settings": "peptide 10^−5 M (table title), 24 hours, relative to untreated controls", "procedure": "(§3) RNA was extracted and purified from cell pellets using the RNA XS Kit (Macherey-Nagel). RNA quantification was carried out with a NanoDrop device and sample quality was verified on a Bioanalyzer with RNA 6000 Nano chips (Agilent). cDNA was synthesized from 300 ng of RNA using the High-Capacity cDNA Reverse Transcription Kit (LifeTech). Quality-control qPCR assays of the cDNA were carried out in microplates on the reference gene, GAPDH, and the SIRT1 gene.\n(§4) Final qPCR experiments were carried out in a 1 μl volume on microfluidic cards (TaqMan Low Density Arrays, LifeTech) and the ABI 7900HT qPCR device. Amplification reactions were performed in duplicate using 1 to 2 ng of cDNA per qPCR reaction and TaqMan Universal Master Mix II (LifeTech).\n(§5) Ct values were obtained using the RQ Manager software. For analyses of qPCR results, Ct values were limited to 35 cycles and the duplicate assays are averaged. The GeneXPro software was used for the studies of stability and of selection of the best reference genes. Expression variations are calculated by the relative quantification method and are expressed as percent increase in expression of the gene of interest relative to the untreated controls."}, "VEGF [4]": {"test_system": "VEGF", "experiment": "VEGF secretion by NHDF (ELISA/BioPlex)", "format": "cell-based, human", "settings": "10^−7 M, 48h", "procedure": "as §1, §2"}, "KGF": {"test_system": "KGF", "experiment": "KGF secretion by HFDPC (ELISA/BioPlex)", "format": "cell-based, human", "settings": "48h", "procedure": "as §1, §2"}, "SCF [5]": {"test_system": "SCF", "experiment": "SCF secretion by NHDF (ELISA/BioPlex)", "format": "cell-based, human", "settings": "10^−5 M, 48h", "procedure": "as §1, §2"}, "PDGF": {"test_system": "PDGF", "experiment": "PDGF secretion by HFDPC (ELISA/BioPlex)", "format": "cell-based, human", "settings": "48h", "procedure": "as §1, §2"}, "VEGF [6]": {"test_system": "VEGF", "experiment": "VEGF secretion by HFDPC (ELISA/BioPlex)", "format": "cell-based, human", "settings": "10^−5 M, 48h", "procedure": "as §1, §2"}, "[7]": {"test_system": "genes whose expression is reduced in subjects characterized by alopecia", "experiment": "qPCR (TLDA) overall statement, genes involved in alopecia, HFDPC", "format": "cell-based, human", "settings": "summary of Table 1", "procedure": "(§6) To study the effect of 9 peptides on these genes, HFDPC were treated for 24 hours with the molecules tested at 10^−7M and 10^−9M concentrations.\nas §3, §4, §5"}, "[8]": {"test_system": "microdissected hairs from scalp surgery specimens", "experiment": "Growth of isolated hair ex vivo", "format": "cell-based, human", "settings": "for Growth at D 11/D 12 Vs Control: ex vivo isolated hair", "procedure": "This study was carried out on microdissected hairs from scalp surgery specimens from women aged 52 to 71 years. Isolated hairs were kept alive for 11 to 12 days in Williams medium, under conventional cell culture conditions (37° C., 5% CO2). […]\nTo evaluate the effect of (1), (6) or (9) on hair growth, the hairs were photographed and their lengths measured using image analysis software. Thus, the growth of the hairs between D0 and D11/D12 could be calculated and compared with that of the untreated control. At the end of the treatments (D11 or D12), the hairs were collected and frozen or fixed for immunolabeling and histological staining."}, "[9]": {"test_system": "normal human dermal fibroblasts (NHDF)", "experiment": "CellTiter-Blue proliferation of NHDF", "format": "cell-based", "settings": "10^−5M, 72 hours", "procedure": "Cell proliferation and viability were evaluated in vitro with a kit from Promega, CellTiter-Blue® Cell Viability Assay, for estimating the number of living cells present in the culture. This kit is based on detection, by measurement of fluorescence, of conversion of the dye, resazurin, into a fluorescent product (resorufin) by living and thus metabolically active cells.\nThe effect of the peptides tested, (1) and (9), at 4 different concentrations (10^−5, 10^−7, 10^−9 and 10^−11M) was examined on five cell types: immortalized human skin keratinocytes (HaCaT), human hair follicular keratinocytes (HHFK), normal human dermal fibroblasts (NHDF), hair follicle dermal papilla cells (HFDPC), and normal human epidermal melanocytes (NHEM) exposed to the molecule studied for 72 hours."}, "BMP2 [10]": {"test_system": "BMP2", "experiment": "qPCR (TLDA) BMP2 gene expression in HFDPC", "format": "cell-based, human", "settings": "peptide 10^−9, 24 hours, relative to untreated controls", "procedure": "as §6, §3, §4, §5"}, "NGF [11]": {"test_system": "NGF", "experiment": "NGF secretion by NHDF (ELISA/BioPlex)", "format": "cell-based, human", "settings": "48h", "procedure": "as §1, §2"}, "HGF": {"test_system": "HGF", "experiment": "HGF secretion by HHFK (ELISA/BioPlex)", "format": "cell-based, human", "settings": "10^−7 M, 48h", "procedure": "as §1, §2"}, "IGF1": {"test_system": "IGF1", "experiment": "qPCR (TLDA) IGF1 gene expression in HFDPC", "format": "cell-based, human", "settings": "peptide 10^−9, 24 hours, relative to untreated controls", "procedure": "as §6, §3, §4, §5"}, "BMP2 [12]": {"test_system": "BMP2", "experiment": "BMP2 secretion by HFDPC (ELISA/BioPlex)", "format": "cell-based, human", "settings": "10^−5 M, 48h", "procedure": "as §1, §2"}, "NGF [13]": {"test_system": "NGF", "experiment": "NGF secretion by HHFK (ELISA/BioPlex)", "format": "cell-based, human", "settings": "10^−7 M, 48h", "procedure": "as §1, §2"}}, "note": "Marks after values point to notes of the source that are not given here. The star is where a group is joined. Palmitoyl = CCCCCCCCCCCCCCCC(=O)*", "data": [{"substance": "Palm-Ala-Ala-Pro-Ala-Lys-NH2 (Palmitoyl-AAPAK-NH2; SMILES CCCCCCCCCCCCCCCC(=O)N[C@@H](C)C(=O)N[C@@H](C)C(=O)N1CCC[C@H]1C(=O)N[C@@H](C)C(=O)N[C@@H](CCCCN)C(N)=O) [(6)]", "values": [{"measurement": "SCF secretion, percent increase relative to untreated control", "setting": "SCF [1]", "result": "SCF 9%"}, {"measurement": "VEGF secretion, percent increase relative to untreated control", "setting": "VEGF [2]", "result": "VEGF 15%"}, {"measurement": "% stimulation VEGF gene expression", "setting": "VEGF [3]", "result": 24, "unit": "%"}, {"measurement": "VEGF secretion, percent increase relative to untreated control", "setting": "VEGF [4]", "result": "VGF 407%"}, {"measurement": "KGF secretion, percent increase relative to untreated control", "setting": "KGF; 10^−5 M", "result": "KGF 7%"}, {"measurement": "KGF secretion, percent increase relative to untreated control", "setting": "KGF; 10^−7 M", "result": "KGF 13%"}, {"measurement": "SCF secretion, percent increase relative to untreated control", "setting": "SCF [5]", "result": "SCF 8%"}, {"measurement": "PDGF secretion, percent increase relative to untreated control", "setting": "PDGF; 10^−5 M", "result": "PDGF 15%"}, {"measurement": "PDGF secretion, percent increase relative to untreated control", "setting": "PDGF; 10^−7 M", "result": "PDGF 38%"}, {"measurement": "VEGF secretion, percent increase relative to untreated control", "setting": "VEGF [6]", "result": "VEGF 18%"}, {"measurement": "stimulation of genes whose expression is reduced in alopecia (in words)", "setting": "[7]", "result": "stimulate several genes"}, {"measurement": "Growth at D 11/D 12 Vs Control", "setting": "[8]; 10^−7 M", "result": "+28%"}, {"measurement": "Growth at D 11/D 12 Vs Control", "setting": "[8]; 10^−9 M", "result": "+38%#"}, {"measurement": "growth increase compared with minoxidil sulphate", "setting": "[8]; peptide 10^−9M, minoxidil sulphate 10^−5 M", "result": "higher than that obtained after treatment with minoxidil sulphate"}, {"measurement": "hair growth after 11 to 12 days of treatment ex vivo (in words)", "setting": "[8]; summary of Table 3", "result": "stimulate hair growth"}, {"measurement": "stimulation of proliferation of NHDF", "setting": "[9]", "result": "+11%"}, {"measurement": "% stimulation BMP2 gene expression", "setting": "BMP2 [10]", "result": "116% (10^−9)"}, {"measurement": "NGF secretion, percent increase relative to untreated control", "setting": "NGF [11]; 10^−5 M", "result": "NGF 51%"}, {"measurement": "NGF secretion, percent increase relative to untreated control", "setting": "NGF [11]; 10^−7 M", "result": "NGF 12%"}, {"measurement": "HGF secretion, percent increase relative to untreated control", "setting": "HGF", "result": "HGF 52%"}, {"measurement": "% stimulation IGF1 gene expression", "setting": "IGF1", "result": "94% (10^−9)"}, {"measurement": "BMP2 secretion, percent increase relative to untreated control", "setting": "BMP2 [12]", "result": "BMP2 44%"}, {"measurement": "NGF secretion, percent increase relative to untreated control", "setting": "NGF [13]", "result": "NGF 10%"}]}]}
